In US8399684B2, “Sulfonamide-based organocatalysts and method for their use” (State of Oregon acting by and through the State Board of …, priority 2007, dated 2013):
In brackets after ≈: the same amount, converted by molar mass.

Columns and labels:
[1] = Solubility of catalysts screened in methylene chloride (dichloromethane); format: physicochemical
From the text: In order to explore the effects of solvent polarity, the solubility of certain catalysts in methylene chloride was screened. Disclosed catalysts typically have a solubility of at least 10 milligrams/milliliter in dichloromethane, and typically at least 50 milligrams/milliliter in dichloromethane.
The absence of a significant non-polar region to the molecule may be the origin of this poor solubility. […] Sulfonamides are ideal choices for proline mimetics as their pKa has been documented to nicely match that of proline.
Ester-based catalysts according to the present disclosure also have markedly better solubilities than previously known compounds.

[2] = Solubility of catalysts under the intramolecular Michael addition conditions; format: physicochemical; conditions: chlorinated reaction solvent, incl. lower temperatures; compared with tetrazole 11 and sulfonamides 12-14
From the text: Proline sulfonamides were tried next as potential organocatalysts. While these ligands have shown promise in certain organocatalyzed reactions, they previously have proven problematic in facilitating Michael addition processes. Proline sulfonamides performed well, providing improved enantiomeric excess (e.e.) at room temperature (Entries 6-8). […] This sulfonamide 15 is readily accessible from the commercially available para-dodecylsulfonylchloride (16) and Cbz-protected proline 18 in 3 steps (Scheme 16).

solubility in dichloromethane [1]: 300 mg/mL (≈ 710 mM) | solubility (in words) [2]: greatly improved solubility properties
Compound: CCCCCCCCCCCCc1ccc(S(=O)(=O)NC(=O)C2CCCN2)cc1 (centres unmarked) [Sulfonamide 15, N-(p-dodecylphenylsulfonyl)-2-Pyrrolidinecarboxamide]
